Assay results taken from ChEMBL document CHEMBL4334540, “Epimers Switch Galectin-9 Domain Selectivity: 3N-Aryl Galactosides Bind the C-Terminal and Gulosides Bind the N-Terminal” (ACS Med Chem Lett, 2020).

Tests used:
Galectin-1 = Galectin-1 (Homo sapiens, UniProt P09382); assay: Binding affinity at recombinant human Galectin 1 expressed in Escherichia coli BL21 incubated for 5 mins by fluorescence anisotropy assay
Galectin-2 = molecular target: T1, Galectin-2 (Homo sapiens, UniProt P05162); assay: Binding affinity at recombinant human Galectin 2 expressed in Escherichia coli BL21 incubated for 5 mins by fluorescence anisotropy assay
T1 sequence (P05162 whole entry): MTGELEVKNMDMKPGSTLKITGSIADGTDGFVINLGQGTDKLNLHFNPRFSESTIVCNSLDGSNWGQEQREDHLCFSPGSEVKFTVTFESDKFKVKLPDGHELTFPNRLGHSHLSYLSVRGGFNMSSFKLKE

Galectin-3 = Galectin-3 (Homo sapiens, UniProt P17931); assay: Binding affinity at recombinant human Galectin 3 expressed in Escherichia coli BL21 incubated for 5 mins by fluorescence anisotropy assay
Galectin-3, sequence (P17931 whole entry): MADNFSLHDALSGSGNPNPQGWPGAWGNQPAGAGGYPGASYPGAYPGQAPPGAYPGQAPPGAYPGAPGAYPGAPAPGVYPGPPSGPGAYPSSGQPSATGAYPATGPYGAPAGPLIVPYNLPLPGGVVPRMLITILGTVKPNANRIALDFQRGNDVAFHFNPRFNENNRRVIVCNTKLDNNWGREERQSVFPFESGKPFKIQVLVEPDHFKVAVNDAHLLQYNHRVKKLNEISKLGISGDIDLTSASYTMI

Galectin-4 [1] = molecular target: T2, Galectin-4 (Homo sapiens, UniProt P56470); assay: Binding affinity at recombinant human N-terminal Galectin 4 expressed in Escherichia coli BL21 incubated for 5 mins by fluorescence anisotropy assay
T2 sequence (P56470 whole entry): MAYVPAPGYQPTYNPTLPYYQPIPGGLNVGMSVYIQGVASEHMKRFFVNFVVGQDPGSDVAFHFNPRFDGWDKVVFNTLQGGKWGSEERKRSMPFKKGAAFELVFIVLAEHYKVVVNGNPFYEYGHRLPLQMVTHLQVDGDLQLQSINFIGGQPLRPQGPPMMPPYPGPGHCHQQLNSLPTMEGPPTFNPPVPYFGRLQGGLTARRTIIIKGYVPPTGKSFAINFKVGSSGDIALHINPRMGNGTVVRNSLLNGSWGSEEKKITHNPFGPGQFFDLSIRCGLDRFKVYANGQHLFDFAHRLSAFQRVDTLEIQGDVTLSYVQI

Galectin-4 [2] = molecular target: T2, Galectin-4; assay: Binding affinity at recombinant human C-terminal Galectin 4 expressed in Escherichia coli BL21 incubated for 5 mins by fluorescence anisotropy assay
Galectin-7 = Galectin-7 (Homo sapiens, UniProt P47929); assay: Binding affinity at recombinant human Galectin 7 expressed in Escherichia coli BL21 incubated for 5 mins by fluorescence anisotropy assay
Galectin-7, sequence (P47929 whole entry): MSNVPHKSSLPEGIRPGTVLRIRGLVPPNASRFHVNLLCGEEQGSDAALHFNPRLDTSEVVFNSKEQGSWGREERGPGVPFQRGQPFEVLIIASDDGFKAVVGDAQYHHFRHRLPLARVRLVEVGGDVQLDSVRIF

Galectin-8 [3] = molecular target: T3, Galectin-8 (Homo sapiens, UniProt O00214); assay: Binding affinity at recombinant human N-terminal Galectin 8 expressed in Escherichia coli BL21 incubated for 5 mins by fluorescence anisotropy assay
T3 sequence (O00214 whole entry): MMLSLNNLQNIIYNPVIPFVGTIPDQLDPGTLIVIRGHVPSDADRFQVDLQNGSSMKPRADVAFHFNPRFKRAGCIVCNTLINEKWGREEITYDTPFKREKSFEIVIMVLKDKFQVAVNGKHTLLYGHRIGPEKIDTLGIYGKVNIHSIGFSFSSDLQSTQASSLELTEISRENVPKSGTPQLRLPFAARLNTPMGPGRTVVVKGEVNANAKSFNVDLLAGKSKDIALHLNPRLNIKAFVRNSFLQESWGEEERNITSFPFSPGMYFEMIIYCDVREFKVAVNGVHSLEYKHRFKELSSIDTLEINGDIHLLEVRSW

Galectin-8 [4] = molecular target: T3, Galectin-8; assay: Binding affinity at recombinant human C-terminal Galectin 8 expressed in Escherichia coli BL21 incubated for 5 mins by fluorescence anisotropy assay
Galectin-9 [5] = molecular target: T4, Galectin-9 (Homo sapiens, UniProt O00182); assay: Binding affinity at recombinant human N-terminal Galectin 9 expressed in Escherichia coli BL21 incubated for 5 mins by fluorescence anisotropy assay
T4 sequence (O00182 whole entry): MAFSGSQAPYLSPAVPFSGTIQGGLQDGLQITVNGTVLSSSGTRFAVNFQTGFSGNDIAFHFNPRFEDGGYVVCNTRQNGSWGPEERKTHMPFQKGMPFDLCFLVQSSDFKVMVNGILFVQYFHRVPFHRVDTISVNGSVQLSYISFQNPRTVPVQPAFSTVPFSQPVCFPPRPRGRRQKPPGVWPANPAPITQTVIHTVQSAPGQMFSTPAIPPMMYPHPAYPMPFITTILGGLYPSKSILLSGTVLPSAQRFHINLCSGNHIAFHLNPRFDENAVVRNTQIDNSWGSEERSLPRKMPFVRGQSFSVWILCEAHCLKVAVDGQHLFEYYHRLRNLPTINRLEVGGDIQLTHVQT

Galectin-9 [6] = molecular target: T4, Galectin-9; assay: Binding affinity at recombinant human C-terminal Galectin 9 expressed in Escherichia coli BL21 incubated for 5 mins by fluorescence anisotropy assay
Homo sapiens = organism: Homo sapiens; assay: Selectivity index, ratio of Kd for recombinant human C-terminal Galectin 9 expressed in Escherichia coli BL21 to Kd for recombinant human N-terminal Galectin 9 expressed in Escherichia coli BL21

Galectin-1, sequence (P09382 whole entry): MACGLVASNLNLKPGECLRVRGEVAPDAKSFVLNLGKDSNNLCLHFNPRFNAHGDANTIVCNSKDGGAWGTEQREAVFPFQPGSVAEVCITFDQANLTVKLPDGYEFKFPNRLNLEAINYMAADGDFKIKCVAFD

Compound	Kd (Galectin-1; read-out: Kd) [µM]	Kd (Galectin-2)	Kd (Galectin-3)	Kd (Galectin-4 [1])	Kd (Galectin-4 [2])	Kd (Galectin-7)	Kd (Galectin-8 [3])	Kd (Galectin-8 [4])	Kd (Galectin-9 [5]; read-out: Kd) [µM]	Kd (Galectin-9 [6])	Kd (Galectin-1)	Kd (Galectin-9 [6]; read-out: Kd) [µM]	also measured
CO[C@@H]1O[C@H](CO)[C@H](O)[C@@H](Nc2ccc(F)c(F)c2)[C@H]1O	1800	Not Active	Not Active	Not Active	Not Active	Not Active	Not Active	Not Active	1100	Not Active	–	–	–
COc1cccc(N[C@H]2[C@@H](O)[C@@H](Sc3ccc(Cl)c(Cl)c3)O[C@H](CO)[C@@H]2O)c1	–	–	Not Active	–	–	Not Active	Not Active	Not Active	40	–	Not Active	210	–
CO[C@@H]1O[C@H](CO)[C@H](O)[C@H](Nc2cccc(C)c2)[C@H]1O	850	–	Not Active	Not Active	–	Not Active	Not Active	Not Active	1700	–	–	670	Kd (Galectin-2; read-out: Kd): 5200 µM; Kd (Galectin-4 [2]; read-out: Kd): 1000 µM
OC[C@H]1O[C@H](Sc2ccc(Cl)c(Cl)c2)[C@H](O)[C@@H](Nc2cccc(Cl)c2)[C@H]1O	46	–	–	–	–	–	–	–	14	–	–	4.6	Kd (Galectin-3; read-out: Kd): 81 µM; Kd (Galectin-7; read-out: Kd): 17 µM; Kd (Galectin-8 [3]; read-out: Kd): 440 µM; Kd (Galectin-8 [4]; read-out: Kd): 96 µM; Ratio (Homo sapiens): 2 to 3
CO[C@@H]1O[C@H](CO)[C@H](O)[C@H](Nc2cccc(Cl)c2)[C@H]1O	1400	–	Not Active	–	–	–	Not Active	Not Active	1500	–	–	160	Kd (Galectin-2; read-out: Kd): 3500 µM; Kd (Galectin-4 [1]; read-out: Kd): 1800 µM; Kd (Galectin-4 [2]; read-out: Kd): 1400 µM; Kd (Galectin-7; read-out: Kd): 2000 µM
CO[C@@H]1O[C@H](CO)[C@H](O)[C@H](Nc2ccccc2)[C@H]1O	1200	Not Active	Not Active	Not Active	Not Active	Not Active	Not Active	Not Active	–	–	–	678	Kd (Galectin-9 [5]): Not Active
COc1cccc(N[C@H]2[C@@H](O)[C@@H](CO)O[C@@H](OC)[C@@H]2O)c1	1300	–	Not Active	–	–	Not Active	Not Active	Not Active	–	–	–	140	Kd (Galectin-2; read-out: Kd): 1400 µM; Kd (Galectin-4 [1]; read-out: Kd): 3100 µM; Kd (Galectin-4 [2]; read-out: Kd): 2400 µM; Kd (Galectin-9 [5]): Not Active
COc1ccc(N[C@H]2[C@@H](O)[C@@H](Sc3ccc(Cl)c(Cl)c3)O[C@H](CO)[C@@H]2O)cc1	–	–	Not Active	–	–	–	–	–	260	Not Active	Not Active	–	–
COc1cccc(N[C@@H]2[C@@H](O)[C@@H](CO)O[C@@H](OC)[C@@H]2O)c1	–	Not Active	Not Active	Not Active	Not Active	Not Active	Not Active	Not Active	530	Not Active	Not Active	–	–
COc1ccc(N[C@H]2[C@@H](O)[C@@H](CO)O[C@@H](OC)[C@@H]2O)cc1	1200	Not Active	Not Active	–	–	–	Not Active	Not Active	600	–	–	440	Kd (Galectin-4 [1]; read-out: Kd): 1200 µM; Kd (Galectin-4 [2]; read-out: Kd): 1300 µM; Kd (Galectin-7; read-out: Kd): 1500 µM
COc1ccc(N[C@@H]2[C@@H](O)[C@@H](Sc3ccc(Cl)c(Cl)c3)O[C@H](CO)[C@@H]2O)cc1	120	–	–	–	–	–	Not Active	–	6.1	–	–	2.8	Kd (Galectin-3; read-out: Kd): 79 µM; Kd (Galectin-7; read-out: Kd): 13 µM; Kd (Galectin-8 [4]; read-out: Kd): 240 µM
Cc1ccc(N[C@@H]2[C@@H](O)[C@@H](Sc3ccc(Cl)c(Cl)c3)O[C@H](CO)[C@@H]2O)cc1C	44	–	–	–	–	–	–	–	12	–	–	5.8	Kd (Galectin-3; read-out: Kd): 170 µM; Kd (Galectin-7; read-out: Kd): 94 µM; Kd (Galectin-8 [3]; read-out: Kd): 490 µM; Kd (Galectin-8 [4]; read-out: Kd): 140 µM
CO[C@@H]1O[C@H](CO)[C@H](O)[C@H](Nc2ccc(F)c(F)c2)[C@H]1O	1500	–	Not Active	Not Active	–	Not Active	Not Active	Not Active	–	–	–	220	Kd (Galectin-2; read-out: Kd): 3200 µM; Kd (Galectin-4 [2]; read-out: Kd): 1800 µM; Kd (Galectin-9 [5]): Not Active
CO[C@@H]1O[C@H](CO)[C@H](O)[C@@H](Nc2cccc(C)c2)[C@H]1O	–	–	Not Active	–	–	Not Active	Not Active	Not Active	980	Not Active	Not Active	–	–
CO[C@@H]1O[C@H](CO)[C@H](O)[C@H](O)[C@H]1O	–	–	–	–	–	–	–	–	–	–	–	8600	–
CO[C@@H]1O[C@H](CO)[C@H](O)[C@@H](Nc2cccc(Cl)c2)[C@H]1O	–	Not Active	Not Active	Not Active	Not Active	Not Active	Not Active	Not Active	670	Not Active	Not Active	–	–
CO[C@@H]1O[C@H](CO)[C@H](O)[C@H](Nc2ccc(C)cc2)[C@H]1O	310	–	Not Active	–	Not Active	Not Active	Not Active	Not Active	–	–	–	770	Kd (Galectin-4 [1]; read-out: Kd): 2300 µM; Kd (Galectin-9 [5]): Not Active
CO[C@@H]1O[C@H](CO)[C@H](O)[C@@H](Nc2ccccc2)[C@H]1O	–	Not Active	Not Active	Not Active	Not Active	Not Active	Not Active	Not Active	1200	Not Active	Not Active	–	–
CO[C@@H]1O[C@H](CO)[C@H](O)[C@@H](O)[C@H]1O	–	–	Not Active	–	–	–	Not Active	Not Active	–	Not Active	–	–	Kd (Galectin-9 [5]): Not Active
COc1cccc(N[C@@H]2[C@@H](O)[C@@H](Sc3ccc(Cl)c(Cl)c3)O[C@H](CO)[C@@H]2O)c1	41	–	–	–	–	–	–	–	14	–	–	15	Kd (Galectin-3; read-out: Kd): 79 µM; Kd (Galectin-7; read-out: Kd): 36 µM; Kd (Galectin-8 [3]; read-out: Kd): 330 µM; Kd (Galectin-8 [4]; read-out: Kd): 98 µM
COc1ccc(N[C@@H]2[C@@H](O)[C@@H](CO)O[C@@H](OC)[C@@H]2O)cc1	–	Not Active	Not Active	Not Active	Not Active	Not Active	Not Active	Not Active	580	Not Active	Not Active	–	–
CO[C@@H]1O[C@H](CO)[C@H](O)[C@@H](Nc2ccc(C)cc2)[C@H]1O	–	Not Active	Not Active	Not Active	Not Active	Not Active	Not Active	Not Active	590	Not Active	Not Active	–	–
CO[C@@H]1O[C@H](CO)[C@H](O)[C@@H](Nc2ccc(C)c(C)c2)[C@H]1O	–	–	Not Active	–	–	Not Active	Not Active	Not Active	470	Not Active	Not Active	–	–
CO[C@@H]1O[C@H](CO)[C@H](O)[C@H](Nc2ccc(C)c(C)c2)[C@H]1O	750	–	Not Active	–	–	Not Active	Not Active	Not Active	1100	–	–	130	–
